# Source: patent publication US11033572B2, “Molecular adjuvants for enhanced cytosolic delivery of active agents” (Universiteit Gent, priority 2017, dated 2021)
# Counter-ions that a name gives are not always drawn.
# Columns and labels:
# Format in all cases: cell-based
# H1299_eGFP cells [1] = experiment: Cell viability following CAD incubation (CellTiter GLO); conditions: for concentration with significant additional cytotoxicity compared to siNGs alone: human, 20 h
# Method: The silencing potential of siPLK1-NGs was established through evaluating the cell viability. Hereto, we applied the CellTiter GLO® assay (Promega, Belgium) according to the manufacturer's guidelines. Before initiating the assay, the culture plates and reconstituted assay buffer were placed at room temperature for 30 minutes. Next, the culture medium was replaced by 250 μL fresh cell medium and an equal volume of assay buffer was added. To induce complete cell lysis, the plates were shaken during 2 minutes and the signal was allowed to stabilize the following 10 minutes. 100 μL from each well was subsequently transferred to an opaque 96-well plate, which was measured with a GloMax® 96 Microplate Luminometer (Promega, Belgium). Three biological replicates were performed and data are expressed as the mean cell viability±SEM.
# Please note that we only applied siCTRL-loaded NGs in this set of experiments. With the interest of evaluating the possible effect of our treatment on cell viability, the CellTiter GLO® assay was performed as described above. Again, three biological replicates were performed and data are expressed as the mean±SEM.
# H1299_eGFP cells [2] = experiment: siNG transfection and sequential adjuvant treatment, eGFP silencing by flow cytometry; conditions: for adjuvant effect on siNG-mediated eGFP silencing: sequential treatment 10, 20 or 40 μM, 20 h, siNGs 2 nM siRNA; for cellular siRNA delivery promoting effect: β2 agonists, 10, 20, 40 μM, 20 h after siNGs
# H1299_eGFP cells [3] = experiment: Side scatter (cellular granularity) by flow cytometry
# Method: For silencing experiments, H1299_eGFP cells were seeded in 24 well plates at a density of 35000 cells/well and were allowed to settle overnight. Subsequently, the cells were transfected and treated with small molecular adjuvants as described previously. Note that for every siEGFP or siPLK1 condition an siCTRL sample was included to account for potential off target effects. SiNG-mediated eGFP silencing was determined by flow cytometry. […] The cells were collected, centrifuged during 5 minutes at 300 g, resuspended in 300 μL flow buffer and kept on ice until analysis. For each sample the forward and side scatter as well as the green fluorescent signal were measured for at least 5000 cells.
# H1299_WT cells = experiment: Phospholipidosis detection with LipidTOX Red; conditions: 20 h incubation
# Method: H1299_WT cells were seeded and allowed to settle overnight as detailed previously. Next, the cells were incubated with a mixture of a 1/1000 dilution of the LipidTOX™ red phospholipidosis detection reagent (Thermo Fisher Scientific, USA) and the desired CAD in complete cell medium. Upon 20 hour incubation, the cells were fixed with 4% PFA and stored at 4° C. covered in Vectashield antifade mounting medium containing DAPI. Imaging occurred with a LSCM and a 100× oil immersion objective. DAPI and the LipidTOX™ red phospholipidosis dye were respectively excited with the 408 nm and 561 nm laser lines and the signal intensity was determined with Image J in minimum 30 cells from 5 images per condition.
# [4] = relative to the first four CADs
molecule,measurement,setting,value
"OCc1cc(C(O)CNCCCCCCOCCCCc2ccccc2)ccc1O (stereo not shown) [(18) Salmeterol, Salmeterol]",concentration with significant additional cytotoxicity compared to siNGs alone,H1299_eGFP cells [1],≥ 20 µM
same,adjuvant effect on siNG-mediated eGFP silencing,H1299_eGFP cells [2],significant additional silencing
same,cellular siRNA delivery promoting effect,H1299_eGFP cells [2],significantly improve cellular siRNA delivery
"COc1ccccc1OCCNCC(O)COc1cccc2[nH]c3ccccc3c12 (stereo not shown) [(26) Carvedilol, Carvedilol]",cytotoxicity versus sum of separate components,H1299_eGFP cells [1]; 40 μM sequential to siNG,exceed the sum of the effects from each separate component
same,"cytotoxicity ranking, CAD treatment alone","H1299_eGFP cells [1]; 10-40 μM, no siNG",most cytotoxic
same,adjuvant effect on siNG-mediated eGFP silencing,H1299_eGFP cells [2],significant additional silencing
"CNCCC=C1c2ccccc2CCc2ccccc21.Cl [(55) Nortriptyline hydrochloride, Nortriptyline hydrochloride]",concentration with significant additional cytotoxicity compared to siNGs alone,H1299_eGFP cells [1],40 µM
same,adjuvant effect on siNG-mediated eGFP silencing,H1299_eGFP cells [2],significant additional silencing
"CC(C)(C)c1ccc(C(O)CCCN2CCC(C(O)(c3ccccc3)c3ccccc3)CC2)cc1 (stereo not shown) [(56) Terfenadine, Terfenadine]",effect on % eGFP expression compared to siNGs alone,"H1299_eGFP cells [2]; 1, 2, 3, 4 or 5 μM",significantly reduce eGFP expression
same,concentration required for silencing effect,H1299_eGFP cells [2]; [4],substantially lower concentrations were required
"CCc1cc2c(cc1CC)CC(NCC(O)c1ccc(O)c3[nH]c(=O)ccc13)C2 (stereo not shown) [(57) Indacaterol maleate, Indacaterol maleate]",cellular siRNA delivery promoting effect,H1299_eGFP cells [2],significantly improve cellular siRNA delivery
"CCN(CC)CCCC(C)Nc1ccnc2cc(Cl)ccc12 (stereo not shown) [Chloroquine, chloroquine]",adjuvant effect on siNG-mediated eGFP silencing,H1299_eGFP cells [2],enhances gene silencing to a similar extent as the initial molecules tested
same,adjuvant effect on siNG-mediated eGFP silencing,H1299_eGFP cells [2]; listed as CLQ,improves the silencing potential of the siNGs to a similar extent
"CCCCCCCC/C=C\CCCCCCC(O)C(=O)O (stereo not shown) [Compound 2-OHOA, 2-hydroxy oleic acid]",effect on gene silencing in combination,H1299_eGFP cells [2]; 300 μM 2OHOA combined with 10 μM DL,additive effect
"CCN(CC)CCO[C@H]1CC[C@@]2(C)C(=CC[C@@H]3[C@@H]2CC[C@]2(C)C(=O)CC[C@@H]32)C1 [Compound U18666A, U18666A]",increase in SSC signal,H1299_eGFP cells [3]; siNG transfection then 30 μM,2 fold
same,effect on siNG-mediated gene silencing,H1299_eGFP cells [2]; 30 μM,clearly improved siNG-mediated gene silencing
"Br.COc1ccc2c(c1)[C@]13CCCC[C@@H]1[C@H](C2)N(C)CC3 [Dextromethorphan hydrobromide, monohydrate]",concentration significantly augmenting the SSC signal,H1299_eGFP cells [3]; after siNG transfection,> 80 µM
same,higher concentration required to obtain similar silencing effects,H1299_eGFP cells [2]; [4],10 fold
same,adjuvant effect on siNG-mediated eGFP silencing,H1299_eGFP cells [2],does not influence gene silencing
same,LipidTOX Red phospholipid signal,H1299_WT cells,only higher doses
"COc1ccc(CC(C)NCC(O)c2ccc(O)c(NC=O)c2)cc1 (stereo not shown) [formoterol, formoterol fumarate hemisulfate]",cellular siRNA delivery promoting effect,H1299_eGFP cells [2],do not qualify as siRNA delivery enhancers
salbutamol hemisulfate,cellular siRNA delivery promoting effect,H1299_eGFP cells [2],do not qualify as siRNA delivery enhancers
